In US10420339B2, “Aqueous fungicidal composition and use thereof for combating harmful micro organisms” (BASF SE, priority 2004, dated 2019):

Assays:
[1] = test system: Coniophora puteana BAM Ebw. 15; experiment: Bravery test (closely based on EN 113) on impregnated wood test specimens, preventive effect against wood-destroying fungi; assay type: cell-based; settings: test fungus CP, Pinus spp. (southern yellow pine) specimens 40x15x4 mm, loss in weight after 6 weeks, <3% by weight = satisfactory; for Limits of the effectiveness, with leaching (EN 84): with leaching according to EN 84
Experimental: (§1) The limits of the effectiveness of the compositions according to the invention with regard to wood-destroying basidiomycetes were determined on wood test specimens of Pinus spp. (southern yellow pine) with the dimensions 40×15×4 mm. The test method on comminuted wood test specimens, known as the Bravery test, is closely based on EN 113 and is used to determine the preventive effect of wood preservatives against wood-destroying fungi (see in this connection A. F. Bravery, Intern. Res. Group Wood Pres., Doc. No. IRG/WP/2113, 5S., Stockholm, 1978). The wood test specimens impregnated with the composition according to the invention were tested without or with the constraint of leaching according to EN 84. […] Coniophora puteana BAM Ebw. 15 and Poria placenta FPRL 280 were used as test fungi. The destruction of the wood caused by fungal infection was registered by the loss in weight of the test woods, which was determined after 6 weeks. […] The concentration limit of the effectiveness is given in two concentrations. […] The limits of the effectiveness are represented in table 4. For comparison, the values determined for a solution of the active substance in acetone are given.

Poria placenta FPRL 280 = experiment: as above; assay type: cell-based; settings: test fungus PP, Pinus spp. (southern yellow pine) specimens 40x15x4 mm, loss in weight after 6 weeks, <3% by weight = satisfactory; for Limits of the effectiveness, with leaching (EN 84): with leaching according to EN 84
Experimental: as §1

| Structure (SMILES) | Limits of the effectiveness, with leaching (EN 84) [1] | Limits of the effectiveness, without leaching [1] [kg/m^3] | Limits of the effectiveness, with leaching (EN 84) (Poria placenta FPRL 280) | Limits of the effectiveness, without leaching (Poria placenta FPRL 280) |
| --- | --- | --- | --- | --- |
| CC(C)(C)C(O)(CCc1ccc(Cl)cc1)Cn1cncn1 (centres unmarked) [Solution of tebuconazole, tebuconazole] | <0.054 kg/m^3 | <0.052 | 0.095-0.152 kg/m^3 | 0.102-0.153 kg/m^3 |
| Fc1ccc([C@]2(Cn3cncn3)O[C@H]2c2ccccc2Cl)cc1 (racemic) [Solution of epoxiconazole, epoxiconazole] | 0.11-0.16 kg/m^3 | <0.19 | 0.11-0.18 kg/m^3 | <0.19 kg/m^3 |
